Laboratory results: patent publication US5753221A, “Transformed erythrocytes, process for preparing the same, and their use in pharmaceutical compositions” (priority 1991, dated 1998)
Where two headings read alike, the source gives them in different places.

What was measured:
[1] = tested on: human erythrocytes lysates; experiment: ddCTP stability in human erythrocytes lysates (HPLC); format: in vitro ADME; conditions: for time stable in erythrocyte lysate: in the presence or absence of ATP
Protocol: Human erythrocytes lysates were prepared by adding 2 volumes of 3 mM sodium potassium phosphate buffer, pH 7.4, containing 3 mM mercaptoethanol, 0.5 mM EDTA to each volume of washed and packed erythrocytes. After 30 min at 4° C., the lysates were centrifuged for 1 h at 12,000×g to remove the cell membranes. The supernatants were then dialyzed overnight against 160 volumes of 0.9% (w/v) NaCl containing 10 mM Tris-HCl, pH 7.5, 10 mM MgCl2 and 0.02 mM EDTA. The dialyzed lysates were then used for the studies of ddCTP stability. Briefly, 900 μl of lysate containing ddCTP 50 μM, 100 μM, 300 μM, 1.2 mM or 1.5 mM in a final volume of 1.2 ml were incubated at 37° C. At time intervals of 0, 15, 30 and 60 min, 250 μl of the incubation mixtures were removed and extracted with 125 μl of 10% (v/v) HClO4. The perchloric acid extract was then neutralized with 23 μl of a 3M solution of K2 CO3, diluted with 60 μl of 0.1M sodium potassium phosphate buffer pH 6.5, centrifuged 10 min at 10,000 rpm in an Eppendorf microcentrifuge and 100 μl of extract analyzed by HPLC as described below. […] Integration of peak areas was obtained by means of an HP 3390A electronic integrator (Hewlett-Packard, Avondale, Pa., U.S.A.). A 5 μm Supelcosil LC-18 column (250 mm×4.6 mm I.D., Supelco, Bellefonte, Pa., U.S.A.) protected by a guard column (Pelliguard LC-18, 20 mm×4.6 mm I.D., pellicular packing material, 40 μm particles) was used throughout these studies. […] All buffer solutions, as well as standards and sample solutions, were filtered through a 0.22 μm membrane filter (Millipore).
The elution conditions used to obtain the chromatograms were: 2 min 100% buffer A, 4 min up to 10% buffer B, 4 min up to 40% buffer B, 3 min up to 100% buffer B and the same conditions are maintained for 7 min. The gradient was then returned to 100% buffer A in 2 min and the initial conditions restored in 8 min. The flow-rate was 1.3 ml/min and the detection wavelength was 272 nm. The analyses were performed at room temperature. Quantitative measurements were carried out by injection of standard solutions of known concentration.

[2] = cited from earlier work
ddCTP dephosphorylation = experiment: ATP inhibition of ddCTP dephosphorylation in erythrocyte lysate; format: biochemical, human; conditions: 2 mM ATP, 100 μM ddCTP, 37° C
Protocol: Human erythrocytes lysates were prepared by adding 2 volumes of 3 mM sodium potassium phosphate buffer, pH 7.4, containing 3 mM mercaptoethanol, 0.5 mM EDTA to each volume of washed and packed erythrocytes. After 30 min at 4° C., the lysates were centrifuged for 1 h at 12,000×g to remove the cell membranes. The supernatants were then dialyzed overnight against 160 volumes of 0.9% (w/v) NaCl containing 10 mM Tris-HCl, pH 7.5, 10 mM MgCl2 and 0.02 mM EDTA. The dialyzed lysates were then used for the studies of ddCTP stability. Briefly, 900 μl of lysate containing ddCTP 50 μM, 100 μM, 300 μM, 1.2 mM or 1.5 mM in a final volume of 1.2 ml were incubated at 37° C. At time intervals of 0, 15, 30 and 60 min, 250 μl of the incubation mixtures were removed and extracted with 125 μl of 10% (v/v) HClO4. The perchloric acid extract was then neutralized with 23 μl of a 3M solution of K2 CO3, diluted with 60 μl of 0.1M sodium potassium phosphate buffer pH 6.5, centrifuged 10 min at 10,000 rpm in an Eppendorf microcentrifuge and 100 μl of extract analyzed by HPLC as described below. […] Integration of peak areas was obtained by means of an HP 3390A electronic integrator (Hewlett-Packard, Avondale, Pa., U.S.A.). […]

[3] = Stability of ddCTP in intact ddCTP-loaded erythrocytes; format: in vitro ADME, human; conditions: human, erythrocytes; incubation time over 3 h, 37° C; read-out: decay of ddCTP
Protocol: (§1) In this case the stability of ddCTP (1 mM) in loaded erythrocytes was evaluated at 37° C. by incubation of ddCTP-loaded erythrocytes at 6% hematocrit in 0.9% (w/v) NaCl containing 10 mM glucose, 5 mM sodium, potassium phosphate buffer, pH 7.4. At different time intervals (0 to 5 h) aliquots (200 μl) of the incubation suspensions were extracted with 100 μl 10% (w/v) HClO4, centrifuged, neutralized and submitted to HPLC analyses as above. In some experiments ^3 H-ddCTP (4 Ci/mmol, Moravek Biochemicals, Inc. Brea Ca) was used.
(§2) In this case fractions of 0.3 ml were collected at the exit of the wavelength detector of the HPLC system by using an LKB fraction collector and counted in a Packard liquid scintillation Counter. Both methods (HPLC detection and liquid scintillation counting) provided similar results (i.e. ddCTP was stable in erythrocytes until ATP was maintained at physiological concentrations of 1.2 mM, while ddCTP dephosphorylation starts when ATP fall down to values lower than 1 mM.

human erythrocytes [4] = experiment: as above; format: in vitro ADME
Protocol: as §1, §2

[5] = tested on: human monocytes/macrophages; experiment: Delivery of 3H-ddCTP to monocytes/macrophages by phagocytosis; format: cell-based; conditions: 3H-ddCTP-loaded erythrocytes
Protocol: Human monocytes/macrophages were prepared from heparinized blood by Lymphoprep (Nyegaard & Co Oslo, Norway) centrifugation. Mononuclear cells collected at the interface between the Lymphoprep and plasma were washed in 5 mM sodium potassium phosphate buffer, pH 7.4, containing 0.9% (w/v) NaCl, 5 mM glucose and finally resuspended in RPMI 1640 medium containing 10% (v/v) fetal bovine serum (FCS). 8.10^6 cells were placed into 100 mm Corning dish and incubated overnight at 37° C. and 5% CO2. Adherent monocytes/macrophages cells were separated from the lymphocytes by three washing steps in RPMI/FCS medium, counted by Tripan blue exclusion dye and incubated with ddCTP-loaded erythrocytes treated or not with ZnCl2 plus BS^3 or with unloaded erythrocytes overnight at 37° C. at a ratio of 100 erythrocytes per monocytes/macrophages. During the loading procedure ^125 I-ubiquitin (2.1 mCi/mg) was also encapsulated as an internal marker to follow phagocytosis both into ddCTP-loaded on ddCTP-unloaded erythrocytes. (Ubiquitin is a polypeptide of 8 KDa that can be easily encapsulated and is retained by the erythrocytes).
After monocytes/macrophages-erythrocytes incubation the dishes were extensively washed with RPMI 1640 medium to remove all erythrocytes not phagocytosed, followed by a 0.9% ammonium chloride washing step to remove adherent erythrocytes that were not yet phagocytosed. […]

cytidine deaminase = cytidine deaminase (Homo sapiens, UniProt P32320); conditions: cited from earlier work
Sequence of cytidine deaminase (P32320 whole entry): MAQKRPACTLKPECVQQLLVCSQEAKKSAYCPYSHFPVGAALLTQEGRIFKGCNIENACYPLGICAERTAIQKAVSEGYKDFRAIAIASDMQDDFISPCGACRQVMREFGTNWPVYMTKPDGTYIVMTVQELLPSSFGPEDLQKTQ

HIV = conditions: cited from earlier work
human erythrocytes [6] = conditions: cited from earlier work
[7] = In vivo half life of loaded erythrocytes in mice (125I-ubiquitin radioactivity)
Protocol: Similar experiments were also performed on mice erythrocytes to do in vivo studies. The results are similar to those reported above. The in vivo half life of these erythrocytes was evaluated by following the radioactivity of ^125 I-ubiquitin-loaded erythrocytes coencapsulated with ddCTP in erythrocytes treated or not with ZnCl2 and BS^3.
In this case, the radioactivity associated with the erythrocytes was determined on blood collected from the tail vein of animals receiving the erythrocytes described above.

For O=c1[nH]cnc2c1ncn2[C@H]1CC[C@@H](COP(=O)(O)OP(=O)(O)OP(=O)(O)O)O1 [ddITP, 2',3'-dideoxyinosine-5'-triphosphate], which “time stable in erythrocyte lysate” value ([1]; 37° C) is on record?
The value was “at least 2 h”.

For Cc1cn([C@H]2C[C@H](N=[N+]=[N-])[C@@H](CO)O2)c(=O)[nH]c1=O [AZT, 3'-azido-3'-deoxythymidine], which “short plasma half-life (approximate)” value ([2]; human, in vivo) is on record?
Its value is “approximately 1 h”.

Which “time stable in erythrocyte lysate” value ([1]; 37° C) does the source give for Nc1ncnc2c1ncn2[C@H]1CC[C@@H](COP(=O)(O)OP(=O)(O)OP(=O)(O)O)O1 [ddATP, 2',3'-dideoxyadenosine-5'-triphosphate] here?
Its value is “at least 2 h”.

For Nc1ncnc2c1ncn2[C@@H]1O[C@H](COP(=O)(O)OP(=O)(O)OP(=O)(O)O)[C@@H](O)[C@H]1O [ATP], which “effect on ddCTP dephosphorylation” value (ddCTP dephosphorylation) is on record?
Its value is “completely abolishes”.

Which “pH of maximum dephosphorylation rate” value [1] does the source give for Nc1ccn([C@H]2CC[C@@H](COP(=O)(O)OP(=O)(O)OP(=O)(O)O)O2)c(=O)n1 [ddCTP, 2',3'-dideoxycytidine-5'-triphosphate] here?
Its value is 8.4.

And the “Vmax of dephosphorylation of ddCTP to ddCDP” value ([1]; 37° C)?
Its value is 3±0.5 nmol/min/g HB.

And the Km ([1]; 37° C, read-out: Km of dephosphorylation of ddCTP to ddCDP)?
Its Km is 140 µM.

And the “dephosphorylation rate relative to maximum rate” value ([1]; pH 7.2 (physiological value))?
Its value is 50%.

And the metabolised at 3 h, 1000 µM [3]?
The metabolised at 3 h, 1000 µM was 20%.

What about the “ATP concentration below which ddCTP dephosphorylation starts” value (human erythrocytes [4]) of the same compound?
Its value is “lower than 1 mM”.

And the “stability of ddCTP in intact cells” value (human erythrocytes [4]; 37° C, 1 mM ddCTP, 6% hematocrit)?
The value was “stable even at 37 °C”.

And the “concentration of ddCTP in monocytes/macrophages after phagocytosis” value [5]?
The value was 2.88 µM.

For Nc1nc2c(ncn2[C@H]2CC[C@@H](COP(=O)(O)OP(=O)(O)OP(=O)(O)O)O2)c(=O)[nH]1 [ddGTP, 2',3'-dideoxyguanosine-5'-triphosphate], which “time stable in erythrocyte lysate” value ([1]; 37° C) is on record?
Its value is “at least 2 h”.

Which results are given for Nc1ccn([C@H]2CC[C@@H](CO)O2)c(=O)n1 [ddCyd, 2',3'-Dideoxycytidine]?
resistance to cytidine deaminase (cytidine deaminase): resistant to cytidine deaminase; concentration that completely protects target helper/inducer T cells against HIV infections (HIV; in vitro): ≥ 0.5 µM; concentration that can suppress the virus (HIV; low multiplicity of infection): ≥ 10 nM; concentration ([2]; 0.09 mg/Kg, intravenous, 4 h, read-out: plasma level at four hours after intravenous administration): < 100 nM; bioavailability ([2]; human, in vivo): good bioavailability; short plasma half-life (approximate) ([2]; human, in vivo): approximately 1 h; concentration ([2]; patients receiving 0.09 mg/Kg, read-out: plasma level during the infusion): > 500 nM

For Nc1ccn([C@H]2CC[C@@H](COP(=O)(O)O)O2)c(=O)n1 [ddCMP, 2',3'-dideoxycytidine-5'-phosphate], which “fate of ddCMP encapsulated in human erythrocytes” value (human erythrocytes [6]) is on record?
Its value is “dephosphorylated by endogenous pyrimidine nucleotidases and subsequently released by the cells as ddCyd”.

With [Cl-].[Cl-].[Zn+2] [ZnCl2] as the compound, how does the “lowest ZnCl2 concentration able to modify red cell survival” value [7] read?
Its value is 0.1 mM.
